Measured values: patent publication US10118930B2, “Piperidinylpyrazolopyrimidinones and their use” (BAYER PHARMA AKTIENGESELLSCHAFT, priority 2015, dated 2018)
Counter-ions that a name gives are not always drawn.

Tested on: clot lysis (fibrinolysis) in diluted human citrated plasma, tPA-induced
Experiment: Plasma-based clot lysis assay (5%)
Assay type: biochemical
Conditions: human citrated platelet-poor plasma 5%, fibrinogen 3 μM, CaCl2 10 mM, tPA 0.2 nM, 37° C., OD at 405 nm
How it was run: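 Compounds added to 5% platelet-poor citrated human plasma with 3 μM fibrinogen in 20 mM HEPES, 150 mM NaCl, 0.01% Brij, pH 7. Clotting and lysis started with 10 mM CaCl2 and 0.2 nM tPA at 37° C. IC50 derived by comparing time courses with a blank control reaction.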

IC50 [nM]	SMILES
28	Cc1ccccc1N(C)C(=O)c1c(C)nn2c(C3CCNCC3)cc(=O)[nH]c12 [Example 431, N,2-dimethyl-N-(2-methyl-phenyl)-5-oxo-7-(piperidin-4-yl)-4,5-dihydro-pyrazolo[1,5-a] pyrimidine-3-carboxamide hydrochloride]
34	COC[C@@H]1CCCN1C(=O)c1c(C)nn2c(C3CCNCC3)cc(=O)[nH]c12 [Example 398, 3-{[(2S)-2-(methoxymethyl)pyrrolidin-1-yl]carbonyl}-2-methyl-7-(piperidin-4-yl) pyrazolo[1,5-a] pyrimidin-5(4H)-one hydrochloride]
34	NC(=O)c1noc(-c2cnn3c(C4CCNCC4)cc(=O)[nH]c23)n1 [Example 200, 5-[5-oxo-7-(piperidin-4-yl)-4,5-dihydropyrazolo[1,5-a]pyrimidin-3-yl]-1,2,4-oxadiazole-3-carboxamide hydrochloride]
20	CC(C)(c1nnc(-c2cnn3c(C4CCNCC4)cc(=O)[nH]c23)o1)n1cncn1 [Example 275, 7-(piperidin-4-yl)-3-{5-[2-(1H-1,2,4-triazol-1-yl)propan-2-yl]-1,3,4-oxadiazol-2-yl}pyrazolo[1,5-a]pyrimidin-5(4H)-one hydrochloride]
120	Cc1nn2c(C3CCNCC3)cc(=O)[nH]c2c1C(=O)N1CCNC(=O)CC1 [Example 430, 2-methyl-3-[(5-oxo-1,4-diazepan-1-yl)carbonyl]-7-(piperidin-4-yl) pyrazolo[1,5-a] pyrimidin-5(4H)-one hydrochloride]
33	COCc1nn2c(C3CCNCC3)cc(=O)[nH]c2c1-c1ccc(OC)cc1 [Example 3, 2-(Methoxymethyl)-3-(4-methoxyphenyl)-7-(piperidin-4-yl)pyrazolo[1,5-a]pyrimidin-5 (4H)-one hydrochloride]
23	CCc1nc(-c2cnn3c(C4CCNCC4)cc(=O)[nH]c23)no1 [Example 262, 3-(5-ethyl-1,2,4-oxadiazol-3-yl)-7-(piperidin-4-yl)pyrazolo[1,5-a]pyrimidin-5(4H)-one hydrochloride]
13	O=C(NCc1ccccc1)c1cnn2c(C3CCNCC3)cc(=O)[nH]c12 [Example 22, N-Benzyl-5-oxo-7-(piperidin-4-yl)-4,5-dihydropyrazolo[1,5-a]pyrimidine-3-carboxamide hydrochloride]
35	O=c1cc(C2CCNCC2)n2ncc(-c3nnc(-c4cccc(C(F)(F)F)c4)o3)c2[nH]1 [Example 175, 7-(piperidin-4-yl)-3-{5-[3-(trifluoromethyl)phenyl]-1,3,4-oxadiazol-2-yl}pyrazolo[1,5-a]pyrimidin-5(4H)-one hydrochloride]
27	Cc1nn2c(C3CCNCC3)cc(=O)[nH]c2c1-c1nc(-c2ccc(C(F)(F)F)cc2)no1 [Example 442, 2-methyl-7-(piperidin-4-yl)-3-{3-[4-(trifluoromethyl)phenyl]-1,2,4-oxadiazol-5-yl}pyrazolo[1,5-a]pyrimidin-5(4H)-one hydrochloride]
85	Cc1nn2c(C3CCNCC3)cc(=O)[nH]c2c1C(=O)OCCC(F)(F)F [Example 466, 3,3,3-trifluoropropyl 2-methyl-5-oxo-7-(piperidin-4-yl)-4,5-dihydropyrazolo[1,5-a]pyrimidine-3-carboxylate hydrochloride]
56	Cc1nn2c(C3CCNCC3)cc(=O)[nH]c2c1C(=O)N1CCOC(C)(C)C1 [Example 426, 3-[(2,2-dimethyl-morpholin-4-yl)carbonyl]-2-methyl-7-(piperidin-4-yl) pyrazolo[1,5-a] pyrimidin-5(4H)-one hydrochloride]
35	CN(CC(F)(F)F)C(=O)c1cnn2c(C3CCNCC3)cc(=O)[nH]c12 [Example 103, N-methyl-5-oxo-7-(piperidin-4-yl)-N-(2,2,2-trifluoroethyl)-4,5-dihydropyrazolo[1,5-a]pyrimidine-3-carboxamide hydrochloride]
34	O=c1cc(C2CCNCC2)n2ncc(-c3nc(Cc4ccc(Cl)cc4)no3)c2[nH]1 [Example 210, 3-[3-(4-chlorobenzyl)-1,2,4-oxadiazol-5-yl]-7-(piperidin-4-yl)pyrazolo[1,5-a]pyrimidin-5(4H)-one hydrochloride]
27	Cc1nn2c(C3CCNCC3)cc(=O)[nH]c2c1C(=O)OC(C)C [Example 366, Propan-2-yl 2-methyl-5-oxo-7-(piperidin-4-yl)-4,5-dihydropyrazolo[1,5-a]pyrimidine-3-carboxylate hydrochloride]
63	O=c1cc(C2CCNCC2)n2ncc(-c3nc(Cc4ccccc4)no3)c2[nH]1 [Example 106, 3-(3-benzyl-1,2,4-oxadiazol-5-yl)-7-(piperidin-4-yl)pyrazolo[1,5-a]pyrimidin-5(4H)-one]
35	O=c1cc(C2CCNCC2)n2ncc(-c3nc(-c4cccc(C(F)(F)F)n4)no3)c2[nH]1 [Example 146, 7-(Piperidin-4-yl)-3-{3-[6-(trifluoromethyl)pyridin-2-yl]-1,2,4-oxadiazol-5-yl}pyrazolo[1,5-a]pyrimidin-5(4H)-one hydrochloride]

IC50 [nM]	SMILES
34	Cc1ccccc1Cc1noc(-c2cnn3c(C4CCNCC4)cc(=O)[nH]c23)n1 [Example 198, 3-[3-(2-methylbenzyl)-1,2,4-oxadiazol-5-yl]-7-(piperidin-4-yl)pyrazolo[1,5-a]pyrimidin-5(4H)-one hydrochloride]
18	O=c1cc(C2CCNCC2)n2ncc(S(=O)(=O)c3ccc(Cl)cc3Cl)c2[nH]1 [Example 74, 3-[(2,4-Dichlorophenyl)sulfonyl]-7-(piperidin-4-yl)pyrazolo[1,5-a]pyrimidin-5(4H)-one hydrochloride]
27	O=c1cc(C2CCNCC2)n2ncc(-c3noc(C4CC(F)(F)C4)n3)c2[nH]1 [Example 392, 3-(5-(3,3-difluorocyclobutyl)-1,2,4-oxadiazol-3-yl)-7-(piperidin-4-yl)pyrazolo[1,5-a]pyrimidin-5(4H)-one hydrochloride]
26	O=c1cc(C2CCNCC2)n2ncc(-c3nnc(-c4ccccc4Cl)o3)c2[nH]1 [Example 290, 3-[5-(2-chlorophenyl)-1,3,4-oxadiazol-2-yl]-7-(piperidin-4-yl)pyrazolo[1,5-a]pyrimidin-5(4H)-one hydrochloride]
8	CCC(C)C(=O)c1cnn2c(C3CCNCC3)cc(=O)[nH]c12 (stereo not shown) [Example 452, 3-(2-methylbutanoyl)-7-(piperidin-4-yl)pyrazolo[1,5-a]pyrimidin-5 (4H)-one hydrochloride]
13	COc1cccc(-c2cnn3c(C4CCNCC4)cc(=O)[nH]c23)c1 [Example 60, 3-(3-Methoxyphenyl)-7-(piperidin-4-yl)pyrazolo[1,5-a]pyrimidin-5(4H)-one hydrochloride]
59	O=c1cc(C2CCNCC2)n2ncc(-c3nnc(-c4ccccc4C(F)(F)F)o3)c2[nH]1 [Example 172, 7-(piperidin-4-yl)-3-{5-[2-(trifluoromethyl)phenyl]-1,3,4-oxadiazol-2-yl}pyrazolo[1,5-a]pyrimidin-5(4H)-one hydrochloride]
130	O=c1cc(C2CCNCC2)n2ncc(CN3CCCC3)c2[nH]1 [Example 343, 7-(piperidin-4-yl)-3-(pyrrolidin-1-ylmethyl)pyrazolo[1,5-a]pyrimidin-5(4H)-one hydrochloride]
40	COCC1CCCN(C(=O)c2c(C)nn3c(C4CCNCC4)cc(=O)[nH]c23)C1 (stereo not shown) [Example 402, 3-{[3-(methoxymethyl)piperidin-1-yl]carbonyl}-2-methyl-7-(piperidin-4-yl) pyrazolo[1,5-a] pyrimidin-5(4H)-one hydrochloride]
25	O=c1cc(C2CCNCC2)n2ncc(-c3nnc(Cc4c(F)cccc4Cl)o3)c2[nH]1 [Example 279, 3-[5-(2-chloro-6-fluorobenzyl)-1,3,4-oxadiazol-2-yl]-7-(piperidin-4-yl)pyrazolo[1,5-a]pyrimidin-5(4H)-one hydrochloride]
11	Cc1nn2c(C3CCNCC3)cc(=O)[nH]c2c1-c1nnc(C(C)(C)C)o1 [Example 338, 3-(5-tert-butyl-1,3,4-oxadiazol-2-yl)-2-methyl-7-(piperidin-4-yl)pyrazolo[1,5-a]pyrimidin-5(4H)-one hydrochloride]
30	O=C(NC1(Cc2ccccc2)CC1)c1cnn2c(C3CCNCC3)cc(=O)[nH]c12 [Example 94, N-(1-benzylcyclopropyl)-5-oxo-7-(piperidin-4-yl)-4,5-dihydropyrazolo[1,5-a]pyrimidine-3-carboxamide hydrochloride]
120	CCCN(CC)C(=O)c1c(C)nn2c(C3CCNCC3)cc(=O)[nH]c12 [Example 432, N-ethyl-2-methyl-5-oxo-7-(piperidin-4-yl)-N-propyl-4,5-dihydro-pyrazolo[1,5-a] pyrimidine-3-carboxamide hydrochloride]
34	Cc1nn2c(C3CCNCC3)cc(=O)[nH]c2c1C(=O)N(C)C1CCC1 [Example 401, N-cyclobutyl-N,2-dimethyl-5-oxo-7-(piperidin-4-yl)-4,5-dihydro-pyrazolo[1,5-a] pyrimidine-3-carboxamide hydrochloride]
34	COC(=O)c1c(C(F)(F)F)nn2c(C3CCNCC3)cc(=O)[nH]c12 [Example 454, Methyl 5-oxo-7-(piperidin-4-yl)-2-(trifluoromethyl)-4,5-dihydropyrazolo[1,5-a]pyrimidine-3-carboxylate hydrochloride]
40	COc1cccc(-c2noc(-c3cnn4c(C5CCNCC5)cc(=O)[nH]c34)n2)c1 [Example 125, 3-[3-(3-Methoxyphenyl)-1,2,4-oxadiazol-5-yl]-7-(piperidin-4-yl)pyrazolo[1,5-a]pyrimidin-5 (4H)-one hydrochloride]

SMILES	IC50 [nM]
Cc1nn2c(C3CCNCC3)cc(=O)[nH]c2c1-c1nc(CCOC(C)(C)C)no1 [Example 302, 3-[3-(2-tert-butoxyethyl)-1,2,4-oxadiazol-5-yl]-2-methyl-7-(piperidin-4-yl)pyrazolo[1,5-a]pyrimidin-5(4H)-one hydrochloride]	6
